Like-named read-outs stand apart in the source and are kept apart here.
Assays:
[1] = In vivo mouse pharmacokinetics, paired oral co-dosing, plasma and brain; parameters: species or system mice; settings: for Cmax / Tmax / AUC / concentration at 0.25 hr / concentration at 0.5 hr / concentration at 1 hr / concentration at 2 hr / concentration at 4 hr / concentration at 6 hr / Kp: 10 mg/kg po co-dosed; for AUC: 0.25-6 hr sampling; for Kp: brain/plasma, read-out: B/P AUC Ratio
Method: In a first study, the compounds of Examples 2 to 6 are compared to the Compound of Formula A (Example 1) using standard procedures in mice. In each test, two compounds are co-dosed in a single animal and the relative pharmacokinetics in plasma and brain is determined. Each test compound is dissolved in polyethylene glycol 400 vehicle, and administered orally at a dose of 10 mg/kg. After single dose oral administration of the test compounds together, plasma and brain levels are measured at 0.25, 0.5, 1, 2, 4, and 6 hours post-dosing. The mean values for maximum concentration, time to maximum concentration, and Area Under the Curve (AUC) for both compounds are determined. The results are summarized in the tables below for various paired co-dosing experiments: […]

[2] = system: human hepatocyte; assay: In vitro human hepatocyte stability assay; assay type: in vitro ADME; settings: human hepatocytes
Method: The compounds of Examples 1, 2, 5 and 6 are compared in a standard in vitro human hepatocyte stability assay run in duplicate. Compounds are provided as 1 M solutions in DMSO, and concentration of test compound is determined at 0.5, 1.0 and 4.0 hours after addition of the test compound. Results are shown below as a percentage of initial concentration.

[3] = brain, read-out: Brain concentration
[4] = plasma, read-out: Plasma concentration

[2H]c1nc([2H])n(C([2H])C(=O)[C@@]2([2H])CC[C@H]3[C@@H]4CC[C@H]5C[C@@](O)(COC([2H])([2H])[2H])CC[C@]5(C)[C@H]4CC[C@@]32C)c1[2H] (stereo partly drawn) [Example 6, 1-((3R,5S,8R,9S,10S,13S,14S,17S)-3-hydroxy-3-((methoxy-d3)methyl)-10,13-dimethylhexadecahydro-1H-cyclopenta[a]phenanthren-17-yl-17-d)-2-(1H-imidazol-1-yl-d3)ethan-1-one-2-d]
brain exposure of drug compared to the non-deuterated compound of Example 1 ([1]; 10 mg/kg po): much higher | brain/plasma AUC ratio compared to Example 1 ([1]; 10 mg/kg po): much higher | Cmax ([1]; brain): 5350 ng/g | Tmax ([1]; brain): 1 h | AUC ([1]; brain): 22400 ng·h/mL | concentration at 0.25 hr [1, 3]: 3300 ng/g | concentration at 0.5 hr [1, 3]: 5350 ng/g | concentration at 1 hr [1, 3]: 5300 ng/g | concentration at 2 hr [1, 3]: 4880 ng/g | concentration at 4 hr [1, 3]: 3060 ng/g | concentration at 6 hr [1, 3]: 2110 ng/g | Kp [1]: 2.7 | Cmax ([1]; plasma): 2120 ng/mL | Tmax ([1]; plasma): 1 h | AUC ([1]; plasma): 8200 ng·h/mL | concentration at 0.25 hr [1, 4]: 1410 ng/mL | concentration at 0.5 hr [1, 4]: 1850 ng/mL | concentration at 1 hr [1, 4]: 2120 ng/mL | concentration at 2 hr [1, 4]: 1650 ng/mL | concentration at 4 hr [1, 4]: 1220 ng/mL | concentration at 6 hr [1, 4]: 642 ng/mL | percentage of initial concentration ([2]; 0 hr): 100% | percentage of initial concentration ([2]; 0.5 hr): 83% | percentage of initial concentration ([2]; 1.0 hr): 69% | percentage of initial concentration ([2]; 4.0 hr): 45%

[2H]C(C(=O)[C@@]1([2H])CC[C@H]2[C@@H]3CC[C@H]4C[C@@](O)(COC([2H])([2H])[2H])CC[C@]4(C)[C@H]3CC[C@@]21C)n1ccnc1 (stereo partly drawn) [Example 5, 1-((3R,5S,8R,9S,10S,13S,14S,17S)-3-hydroxy-3-((methoxy-d3)methyl)-10,13-dimethylhexadecahydro-1H-cyclopenta[a]phenanthren-17-yl-17-d)-2-(1H-imidazol-1-yl)ethan-1-one-2-d]
Cmax ([1]; brain): 5700 ng/g | Tmax ([1]; brain): 1 h | AUC ([1]; brain): 23500 ng·h/mL | concentration at 0.25 hr [1, 3]: 3450 ng/g | concentration at 0.5 hr [1, 3]: 5540 ng/g | concentration at 1 hr [1, 3]: 5700 ng/g | concentration at 2 hr [1, 3]: 5100 ng/g | concentration at 4 hr [1, 3]: 3180 ng/g | concentration at 6 hr [1, 3]: 2240 ng/g | Kp [1]: 2.6 | Cmax ([1]; plasma): 2300 ng/mL | Tmax ([1]; plasma): 1 h | AUC ([1]; plasma): 8900 ng·h/mL | concentration at 0.25 hr [1, 4]: 1490 ng/mL | concentration at 0.5 hr [1, 4]: 1960 ng/mL | concentration at 1 hr [1, 4]: 2300 ng/mL | concentration at 2 hr [1, 4]: 1770 ng/mL | concentration at 4 hr [1, 4]: 1340 ng/mL | concentration at 6 hr [1, 4]: 725 ng/mL | percentage of initial concentration ([2]; 0 hr): 100% | percentage of initial concentration ([2]; 0.5 hr): 83% | percentage of initial concentration ([2]; 1.0 hr): 80% | percentage of initial concentration ([2]; 4.0 hr): 52%

[2H]c1nc([2H])n(CC(=O)[C@H]2CC[C@H]3[C@@H]4CC[C@H]5C[C@@](O)(COC)CC[C@]5(C)[C@H]4CC[C@]23C)c1[2H] [Example 2, 1-((3R,5S,8R,9S,10S,13S,14S,17S)-3-hydroxy-3-(methoxymethyl)-10,13-dimethylhexadecahydro-1H-cyclopenta[a]phenanthren-17-yl)-2-(1H-imidazol-1-yl-d3)ethan-1-one]
brain exposure of drug compared to the non-deuterated compound of Example 1 ([1]; 10 mg/kg po): much higher | brain/plasma AUC ratio compared to Example 1 ([1]; 10 mg/kg po): much higher | Cmax ([1]; brain): 7600 ng/g | Tmax ([1]; brain): 1 h | AUC ([1]; brain): 29000 ng·h/mL | concentration at 0.25 hr [1, 3]: 1840 ng/g | concentration at 0.5 hr [1, 3]: 5590 ng/g | concentration at 1 hr [1, 3]: 7600 ng/g | concentration at 2 hr [1, 3]: 6340 ng/g | concentration at 4 hr [1, 3]: 4890 ng/g | concentration at 6 hr [1, 3]: 1410 ng/g | Kp [1]: 2.8 | Cmax ([1]; plasma): 2550 ng/mL | Tmax ([1]; plasma): 1 h | AUC ([1]; plasma): 10300 ng·h/mL | concentration at 0.25 hr [1, 4]: 1180 ng/mL | concentration at 0.5 hr [1, 4]: 1740 ng/mL | concentration at 1 hr [1, 4]: 2550 ng/mL | concentration at 2 hr [1, 4]: 2120 ng/mL | concentration at 4 hr [1, 4]: 1760 ng/mL | concentration at 6 hr [1, 4]: 774 ng/mL | percentage of initial concentration ([2]; 0 hr): 100% | percentage of initial concentration ([2]; 0.5 hr): 105% | percentage of initial concentration ([2]; 1.0 hr): 107% | percentage of initial concentration ([2]; 4.0 hr): 92%

[2H]c1nc([2H])n(CC(=O)[C@H]2CC[C@H]3[C@@H]4CC[C@H]5C[C@@](O)(COC([2H])([2H])[2H])CC[C@]5(C)[C@H]4CC[C@]23C)c1[2H] [Example 4, 1-((3R,5S,8R,9S,10S,13S,14S,17S)-3-hydroxy-3-((methoxy-d3)methyl)-10,13-dimethylhexadecahydro-1H-cyclopenta[a]phenanthren-17-yl)-2-(1H-imidazol-1-yl-d3)ethan-1-one]
brain exposure of drug compared to the non-deuterated compound of Example 1 ([1]; 10 mg/kg po): much higher | brain/plasma AUC ratio compared to Example 1 ([1]; 10 mg/kg po): much higher | Cmax ([1]; brain): 6530 ng/g | Tmax ([1]; brain): 1 h | AUC ([1]; brain): 25000 ng·h/mL | concentration at 0.25 hr [1, 3]: 1710 ng/g | concentration at 0.5 hr [1, 3]: 5070 ng/g | concentration at 1 hr [1, 3]: 6530 ng/g | concentration at 2 hr [1, 3]: 5480 ng/g | concentration at 4 hr [1, 3]: 4200 ng/g | concentration at 6 hr [1, 3]: 1180 ng/g | Kp [1]: 2.7 | Cmax ([1]; plasma): 2520 ng/mL | Tmax ([1]; plasma): 1 h | AUC ([1]; plasma): 9220 ng·h/mL | concentration at 0.25 hr [1, 4]: 896 ng/mL | concentration at 0.5 hr [1, 4]: 1490 ng/mL | concentration at 1 hr [1, 4]: 2520 ng/mL | concentration at 2 hr [1, 4]: 1950 ng/mL | concentration at 4 hr [1, 4]: 1600 ng/mL | concentration at 6 hr [1, 4]: 423 ng/mL

[2H]C([2H])([2H])OC[C@@]1(O)CC[C@@]2(C)[C@@H](CC[C@@H]3[C@@H]2CC[C@]2(C)[C@@H](C(=O)Cn4ccnc4)CC[C@@H]32)C1 [Example 3, 1-((3R,5S,8R,9S,10S,13S,14S,17S)-3-hydroxy-3-((methoxy-d3)methyl)-10,13-dimethylhexadecahydro-1H-cyclopenta[a]phenanthren-17-yl)-2-(1H-imidazol-1-yl)ethan-1-one]
plasma and brain AUC values and B/P ratio compared to Example 1 ([1]; 10 mg/kg po): similar | Cmax ([1]; brain): 2620 ng/g | Tmax ([1]; brain): 1 h | AUC ([1]; brain): 13200 ng·h/mL | concentration at 0.25 hr [1, 3]: 2200 ng/g | concentration at 0.5 hr [1, 3]: 2000 ng/g | concentration at 1 hr [1, 3]: 2620 ng/g | concentration at 2 hr [1, 3]: 2370 ng/g | concentration at 4 hr [1, 3]: 2200 ng/g | concentration at 6 hr [1, 3]: 1980 ng/g | Kp [1]: 1.2 | Cmax ([1]; plasma): 2420 ng/mL | Tmax ([1]; plasma): 1 h | AUC ([1]; plasma): 11300 ng·h/mL | concentration at 0.25 hr [1, 4]: 2170 ng/mL | concentration at 0.5 hr [1, 4]: 1570 ng/mL | concentration at 1 hr [1, 4]: 2420 ng/mL | concentration at 2 hr [1, 4]: 2020 ng/mL | concentration at 4 hr [1, 4]: 1810 ng/mL | concentration at 6 hr [1, 4]: 1720 ng/mL

— US12325726B2, “Organic compounds” (priority 2018, dated 2025)
